One may read the inhibition as the percentage by which the read-out fell short of the control.

The values below come from patent US20100087475A1, “PHARMACEUTICAL COMPOUNDS” (Biovali Laboratories International (Barbados) S.R.L., priority 2008, published 2010).

Common to all, as to settings: compound at 10 μM
One assay has as its target T1, Adrenergic α2A Receptor (Homo sapiens, UniProt P08913).
T1 construct: expressed in transfected cells; host or cells: insect Sf9 cells
T1 sequence (P08913 1-465): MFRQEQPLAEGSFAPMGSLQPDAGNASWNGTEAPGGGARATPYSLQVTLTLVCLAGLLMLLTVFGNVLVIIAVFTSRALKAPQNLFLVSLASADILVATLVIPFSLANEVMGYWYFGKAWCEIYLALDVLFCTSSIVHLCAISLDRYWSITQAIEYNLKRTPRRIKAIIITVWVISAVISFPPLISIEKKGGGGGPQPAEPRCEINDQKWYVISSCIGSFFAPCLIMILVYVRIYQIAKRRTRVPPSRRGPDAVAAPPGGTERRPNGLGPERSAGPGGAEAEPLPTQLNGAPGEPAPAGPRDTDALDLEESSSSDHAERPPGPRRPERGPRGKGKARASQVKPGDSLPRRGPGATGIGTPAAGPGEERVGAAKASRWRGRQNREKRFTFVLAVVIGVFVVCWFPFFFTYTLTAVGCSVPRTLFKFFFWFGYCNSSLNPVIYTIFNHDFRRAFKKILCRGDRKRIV
Put plainly: Radioligand binding, [3H] MK-912. The procedure:
(§1) Compounds of the invention were subjected to specific binding assays to test their ability to bind to the receptors and transporter proteins described below.
(a) Adrenergic α2A Receptor:
(§2) • Reference: S. Uhlçn et al. J. Pharmacol. Exp. Ther., 271:1558-1565 (1994) • Source: Human recombinant insect Sf9 cells • Ligand: 1 nM [^3H]

In a further assay the target is T2, Dopamine D1 Receptor (Homo sapiens, UniProt P21728).
T2 construct: expressed in transfected cells; host or cells: CHO cells
T2 sequence (P21728 whole entry): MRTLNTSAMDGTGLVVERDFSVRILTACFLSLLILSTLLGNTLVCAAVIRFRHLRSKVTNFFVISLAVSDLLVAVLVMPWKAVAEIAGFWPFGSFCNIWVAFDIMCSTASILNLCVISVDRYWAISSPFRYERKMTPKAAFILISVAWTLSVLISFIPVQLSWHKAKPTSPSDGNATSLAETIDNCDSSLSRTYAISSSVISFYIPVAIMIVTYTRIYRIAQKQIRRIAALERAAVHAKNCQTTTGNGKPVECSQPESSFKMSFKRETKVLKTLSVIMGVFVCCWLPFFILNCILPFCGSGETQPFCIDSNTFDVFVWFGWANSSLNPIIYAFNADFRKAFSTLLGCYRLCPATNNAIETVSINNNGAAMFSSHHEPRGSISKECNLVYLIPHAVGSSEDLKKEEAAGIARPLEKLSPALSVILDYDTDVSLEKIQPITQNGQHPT
Briefly: Radioligand binding, [3H] SCH-23390. The procedure:
as §1
(d) Dopamine D1 Receptor:
• Reference: Dearry et al., Nature, 347:72-76, (1990) • Source: Human recombinant CHO cells • Ligand: 1.4 nM [3H] SCH-23390 • Vehicle: 1% DMSO • Incubation time/Temp: 2 hours @ 37° C. • Incubation buffer: 50 mM Tris-HCl, pH 7.4, 150 mM NaCl, 1.4 mM ascorbic acid, 0.001% BSA • Non Specific ligand: 10 μM (+)-butaclamol • Kd: 1.4 nM • Bmax: 0.63 pmole/mg protein • Specific binding: 90% • Quantitation method: Radioligand binding • Significance criteria: ≧50% of maximum stimulation or inhibition

For a further assay, the target named is T3, Sigma σ2 Receptor (Rattus norvegicus, UniProt Q5U3Y7).
T3 construct: Source: Wistar rat brain; from tissue; host or cells: Wistar rat brain
T3 sequence (Q5U3Y7 1-176): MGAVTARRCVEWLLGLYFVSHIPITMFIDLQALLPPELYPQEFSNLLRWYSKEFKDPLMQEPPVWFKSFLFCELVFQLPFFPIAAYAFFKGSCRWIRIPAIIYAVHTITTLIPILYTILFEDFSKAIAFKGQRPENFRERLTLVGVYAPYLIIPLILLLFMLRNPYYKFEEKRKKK
Put plainly: Radioligand binding, [3H] Ifenprodil, brain. Further details: species or system Wistar rat. The procedure: as §1
• Reference: Hashimoto et al., Eur. J. Pharmacol., 236:159-163, (1993) • Source: Wistar rat brain • Ligand: 3 nM [3H] Ifenprodil • Vehicle: 1% DMSO • Incubation time/Temp: 60 minutes @ 37° C. • Incubation buffer: 50 mM Tris-HCl, pH 7.4 • Non Specific ligand: 10 μM Ifenprodil • Kd: 4.8 nM • Bmax: 1.3 pmole/mg protein • Specific binding: 85% • Quantitation method: Radioligand binding • Significance criteria: ≧50% of maximum stimulation or inhibition

For another assay, the target named is T4, Dopamine D3 Receptor (Homo sapiens, UniProt P35462).
T4 construct: expressed in transfected cells; host or cells: CHO cells
T4 sequence (P35462 whole entry): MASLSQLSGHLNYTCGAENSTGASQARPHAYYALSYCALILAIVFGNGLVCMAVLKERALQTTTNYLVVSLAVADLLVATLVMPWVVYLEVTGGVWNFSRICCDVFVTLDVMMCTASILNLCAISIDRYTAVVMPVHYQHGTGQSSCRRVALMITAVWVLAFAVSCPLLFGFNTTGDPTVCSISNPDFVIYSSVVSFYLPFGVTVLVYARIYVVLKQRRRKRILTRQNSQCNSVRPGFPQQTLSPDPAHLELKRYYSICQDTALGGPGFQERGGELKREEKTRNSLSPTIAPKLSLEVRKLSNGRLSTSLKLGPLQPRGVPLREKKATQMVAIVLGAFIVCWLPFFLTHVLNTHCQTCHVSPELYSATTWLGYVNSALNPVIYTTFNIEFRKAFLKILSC
Put plainly: Radioligand binding, [3H] Spiperone. The procedure:
as §1
(g) Dopamine D3 Receptor:
• Reference: Sokoloff et al., Nature, 347:146-151, (1990) • Source: Human recombinant CHO cells • Ligand: 0.7 nM [3H]

The next assay concerns Dopamine D4.7 Receptor. Briefly: Radioligand binding, [3H] Spiperone. Further details: species or system Human. The procedure:
as §1
(j) Dopamine D4.7 Receptor:
• Reference: Van Tol et al., Nature, 350:610-614 (1991) • Source: Human recombinant CHO-K1 cells • Ligand: 1.5 nM [^3H]

The subject of assay [1] is Imidazoline I2 (Peripheral) Receptor. Put plainly: Radioligand binding, [3H] Idazoxan, kidney. Further details: species or system Wistar rat. The procedure: as §1
(I) Imidazoline I2 (Peripheral) Receptor:
• Reference: Brown et al., Brit. J. Pharmacol., 99:803-809, (1990) • Source: Wistar rat kidney • Ligand: 5 nM [^3H]

The next assay addresses T5, Adrenergic α2C Receptor (Homo sapiens, UniProt P18825).
T5 construct: expressed in transfected cells; host or cells: insect Sf9 cells
T5 sequence (P18825 1-462): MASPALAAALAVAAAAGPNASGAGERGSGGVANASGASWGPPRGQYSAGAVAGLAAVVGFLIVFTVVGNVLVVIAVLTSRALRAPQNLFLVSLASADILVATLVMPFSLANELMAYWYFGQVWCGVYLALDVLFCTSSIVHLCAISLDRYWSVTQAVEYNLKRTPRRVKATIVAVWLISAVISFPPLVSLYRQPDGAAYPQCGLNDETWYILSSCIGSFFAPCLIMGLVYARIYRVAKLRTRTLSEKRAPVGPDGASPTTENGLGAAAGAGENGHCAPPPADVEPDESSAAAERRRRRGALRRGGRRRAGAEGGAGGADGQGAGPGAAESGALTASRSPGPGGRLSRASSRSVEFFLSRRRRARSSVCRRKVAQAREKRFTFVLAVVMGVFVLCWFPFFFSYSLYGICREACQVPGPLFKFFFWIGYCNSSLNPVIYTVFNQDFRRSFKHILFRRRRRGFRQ
Put plainly: Radioligand binding, [3H] MK-912. The procedure:
as §1
(c) Adrenergic α2C Receptor:
as §2

On to `COc1cc2c(cc1O)[C@@H]1C[C@@H](O)[C@H](CC(C)C)CN1CC2` (single isomer, unassigned) [(+)-10-desmethyl-γ-dihydrotetrabenazine], for which, on Adrenergic α2A Receptor, the “% inhibition, (a) α2A Receptor” value was found to be 13%. The “% inhibition, (d) D1 Receptor” value at Dopamine D1 Receptor is 29%. For the same compound, the inhibition at 10 µM on Sigma σ2 Receptor (read-out: % inhibition, (n) σ2 Receptor) is 31%. The “% inhibition, (g) D3 Receptor” value on Dopamine D3 Receptor stood at 65%. The “% inhibition, (j) D4.7 Receptor” value in the assay on Dopamine D4.7 Receptor is 25%. Also, in assay [1], the “% inhibition, (l) I2 Receptor (peripheral)” value is 24%. For the same compound, the “% inhibition, (c) α2C Receptor” value at Adrenergic α2C Receptor was −7%.

Consider `COc1cc2c(cc1O)[C@@H]1C[C@@H](O)[C@H](CC(C)C)CN1CC2` (single isomer, unassigned) [(−)-10-desmethyl-γ-dihydrotetrabenazine], for which, at Adrenergic α2A Receptor, the “% inhibition, (a) α2A Receptor” value amounted to 69%. Moreover, the “% inhibition, (d) D1 Receptor” value on Dopamine D1 Receptor is 96%. In addition, the “% inhibition, (n) σ2 Receptor” value at Sigma σ2 Receptor (10 µM) was 32%. Moreover, on Dopamine D3 Receptor, the “% inhibition, (g) D3 Receptor” value turned out to be 101%. The “% inhibition, (j) D4.7 Receptor” value with Dopamine D4.7 Receptor is recorded as 87%. Also, the “% inhibition, (l) I2 Receptor (peripheral)” value in assay [1] was determined as 25%. The “% inhibition, (c) α2C Receptor” value at Adrenergic α2C Receptor was found to be 60%.
